Assay results reported in US20050112573A1, “Method of detecting toxic substance” (priority 2001, published 2005).

Tested on: yeast genes (level of expressed mRNA)
Assay: DNA chip analysis of expressed mRNA of yeast genes after 2 h culture with a toxic chemical substance
Format: cell-based, Saccharomyces cerevisiae S288C
Settings: for The level of expressed mRNA in the presence of chemical substance/ (ratio to absence of chemical substance): stress protein genes, DNA chip; for The level of expressed mRNA in the presence of chemical substance/ in its absence, gene YDL078C: yeast gene YDL078C
Experimental: Yeast (Saccharomyces cerevtisiae S288C (α SUC2mal mel gap2 CUP1)) were cultured at 25° C. on YPD medium (yeast extract 1%, polypepton 2%, glucose 2%). One of toxic chemical substances was added to the cell at logarithmic growth phase, and the cell was further cultured for two hours. Cell was cultured without any chemical substance in the same condition, and was used as control. Concentrations of the chemical substances were defined to inhibit the growth of the yeast but not lead to death.
After the completion of cultivation, the culture was centrifuged to collect the cells. To the cells, sodium acetate buffer (50 mM sodium acetate, 10 mM EDTA, 1% SDS) was added, and the mixture was shaken at 65° C. for five minutes, followed by returning to room temperature, and obtaining the supernatant, which procedure was repeated two times. To the supernatant, ½ amount of a solution of phenol/chloroform was added, and the mixture was centrifuged to give a supernatant, which was added with an equal amount of chloroform, and the mixture was centrifuged to give a supernatant. To the supernatant, an equal amount of isopropanol containing 0.3 M sodium acetate was added, and the mixture was allowed to stand at room temperature for 30 minutes, after which the mixture was centrifuged to give a sediment of the whole RNAs. Seventy % ethanol was added to the sediment, and the mixture was again centrifuged to give a sediment, which was then dried and dissolved in water. mRNA was isolated from the whole RNAs as followings. In view of the fact that a poly A chain is attached to the 3′ terminus of mRNA, a polynucleotide having a poly T structure which was immobilized on the surface of latex beads was used to trap the mRNA, and then the mRNA was washed and eluted with spine column (Oligotex-dT30<Super>mRNA Purification Kit, Takara). Reverse transcription of the mRNA was conducted with a reverse transcriptase (Super Script II Reverse Transcriptase; catalogue No. 18064-014, GibcoBRL) using fluorescence-labeled nucleotides to give cDNAs that were introduced with Cy3-dUTP or Cy5-dUTP during the reverse transcription.
The labeled cDNAs were dissolved in TE buffer (10 mM Tris-HCl/1 mM EDTA, pH8.0), and the solution was dropped on the DNA chip containing the whole genes of yeast (DNA Chip Research Inc. Japan) so that the cDNAs were hybridized on the DNA chip at 65° C. for over 12 hours. The fluoresces intensity of the DNA chip was read with a scanner, and the ratio relative to the fluorescence intensity resulting from the absence of chemical substance was estimated as the following, which is shown in Tables 1 to 9: [formula]
In the Tables, “Intensity” indicated in the rightmost column is a value of the level of expressed mRNA of each gene in control cells as divided by the average level of the expressions of the whole genes.

COc1cc(CNC(=O)CCCCC=CC(C)C)ccc1O [(12), 8-methyl-N-vanillyl-6-nonenamide]
level of expressed mRNA in the presence of chemical substance/in its absence (gene YOR344C): 1.3 | level of expressed mRNA in the presence of chemical substance/in its absence (gene YOR347C): 1.2 | The level of expressed mRNA in the presence of chemical substance/absence: YPL005W (gene YPL005W): 0.7 | level of expressed mRNA in the presence of chemical substance/in its absence (gene YPL017C): 1.0 | The level of expressed mRNA in the presence of chemical substance / the level in the absence of chemical substance, yeast gene YPL107W (gene YPL107W, DNA chip fluorescence ratio to control without chemical, 2 hours culture with chemical, growth-inhibiting non-lethal concentration): 0.7 | The level of expressed mRNA in the presence of chemical substance / the level in the absence of chemical substance, yeast gene YPL138C (gene YPL138C, DNA chip fluorescence ratio to control without chemical, 2 hours culture with chemical, growth-inhibiting non-lethal concentration): 0.9 | The level of expressed mRNA in the presence of chemical substance/absence: YPL150W (gene YPL150W): 1.0 | The level of expressed mRNA in the presence of chemical substance/absence: YPL151C (gene YPL151C): 0.8 | The level of expressed mRNA in the presence of chemical substance/absence: YPL152W (gene YPL152W): 0.9 | The level of expressed mRNA in the presence of chemical substance/absence: YPL168W (gene YPL168W): 0.7 | The level of expressed mRNA in the presence of chemical substance/absence: YPL180W (gene YPL180W): 0.8 | The level of expressed mRNA in the presence of chemical substance/absence: YPL188W (gene YPL188W): 0.6 | The level of expressed mRNA in the presence of chemical substance/absence: YPL221W (gene YPL221W): 0.8 | The level of expressed mRNA in the presence of chemical substance/absence: YPL225W (gene YPL225W): 0.7 | The level of expressed mRNA in the presence of chemical substance/absence: YPL249C (gene YPL249C): 0.9 | The level of expressed mRNA in the presence of chemical substance/absence: YPL260W (gene YPL260W): 0.8 | level of expressed mRNA in the presence of chemical substance/in its absence (gene YPL265W): 0.9 | level of expressed mRNA in the presence of chemical substance/in its absence (gene YPR006C): 1.1 | level of expressed mRNA in the presence of chemical substance/in its absence (gene YPR026W): 1.2 | The level of expressed mRNA in the presence of chemical substance/absence: YPR049C (gene YPR049C): 0.9 | The level of expressed mRNA in the presence of chemical substance/absence: YPR061C (gene YPR061C): 0.8 | The level of expressed mRNA in the presence of chemical substance/absence: YPR093C (gene YPR093C): 0.9 | The level of expressed mRNA in the presence of chemical substance/absence: YPR146C (gene YPR146C): 0.8 | The level of expressed mRNA in the presence of chemical substance/absence: YPR148C (gene YPR148C): 1.2 | The level of expressed mRNA in the presence of chemical substance/absence: YPR150W (gene YPR150W): 0.6 | The level of expressed mRNA in the presence of chemical substance/absence: YPR158W (gene YPR158W): 0.6 | The level of expressed mRNA in the presence of chemical substance/absence: YPR169W (gene YPR169W): 0.5 | The level of expressed mRNA in the presence of chemical substance/absence: YPR172W (gene YPR172W): 0.8 | The level of expressed mRNA in the presence of chemical substance/absence: YPR174C (gene YPR174C): 1.1 | The level of expressed mRNA in the presence of chemical substance/The level of expressed mRNA in the absence of chemical substance (yeast gene YAR010C): 1.0 | The level of expressed mRNA in the presence of chemical substance/The level of expressed mRNA in the absence of chemical substance (yeast gene YBL005W-A): 1.6 | The level of expressed mRNA in the presence of chemical substance/ (ratio to absence), gene YBL038W (yeast gene YBL038W, mitochondria-located protein genes, 2 h culture with chemical): 0.7 | The level of expressed mRNA in the presence of chemical substance/The level of expressed mRNA in the absence of chemical substance (yeast gene YBL041W): 1.6 | The level of expressed mRNA in the presence of chemical substance/The level of expressed mRNA in the absence of chemical substance (yeast gene YBL043W): 0.9 | The level of expressed mRNA in the presence of chemical substance/The level of expressed mRNA in the absence of chemical substance (yeast gene YBL078C): 3.1 | The level of expressed mRNA in the presence of chemical substance/ (ratio to absence of chemical substance) (yeast gene YBL093C): 1.1 | The level of expressed mRNA in the presence of chemical substance/ (in its absence), gene YBR036C (yeast gene YBR036C, ratio of DNA chip fluorescence intensity to that without chemical substance): 1.0 | The level of expressed mRNA in the presence of chemical substance/ (ratio to absence of chemical substance) (yeast gene YBR044C): 0.8 | The level of expressed mRNA in the presence of chemical substance/ (ratio to absence), gene YBR122C (yeast gene YBR122C, mitochondria-located protein genes, 2 h culture with chemical): 0.7 | The level of expressed mRNA in the presence of chemical substance/The level of expressed mRNA in the absence of chemical substance (yeast gene YBR214W): 1.2 | The level of expressed mRNA in the presence of chemical substance/ (ratio to absence), gene YBR251W (yeast gene YBR251W, mitochondria-located protein genes, 2 h culture with chemical): 1.1 | The level of expressed mRNA in the presence of chemical substance/ (in its absence), gene YBR298C (yeast gene YBR298C, ratio of DNA chip fluorescence intensity to that without chemical substance): 1.1 | The level of expressed mRNA in the presence of chemical substance/The level of expressed mRNA in the absence of chemical substance (yeast gene YCL020W): 1.5 | The level of expressed mRNA in the presence of chemical substance/The level of expressed mRNA in the absence of chemical substance (yeast gene YCL027W): 0.8 | The level of expressed mRNA in the presence of chemical substance/The level of expressed mRNA in the absence of chemical substance (yeast gene YCR004C): 0.8 | The level of expressed mRNA in the presence of chemical substance/ (ratio to absence), gene YCR046C (yeast gene YCR046C, mitochondria-located protein genes, 2 h culture with chemical): 1.1 | The level of expressed mRNA in the presence of chemical substance/The level of expressed mRNA in the absence of chemical substance (yeast gene YCR071C): 1.1 | The level of expressed mRNA in the presence of chemical substance/ (ratio to absence), gene YCR083W (yeast gene YCR083W, mitochondria-located protein genes, 2 h culture with chemical): 1.1 | The level of expressed mRNA in the presence of chemical substance/ (ratio to absence of chemical substance) (yeast gene YCR083W): 1.1 | The level of expressed mRNA in the presence of chemical substance/The level of expressed mRNA in the absence of chemical substance (yeast gene YCR088W): 1.3 | The level of expressed mRNA in the presence of chemical substance/The level of expressed mRNA in the absence of chemical substance (yeast gene YDL008W): 1.2 | The level of expressed mRNA in the presence of chemical substance/ in its absence, gene YDL067C (yeast gene YDL067C, energy system protein genes, 2 h culture with the chemical, ratio to control without chemical): 1.0 | The level of expressed mRNA in the presence of chemical substance/ (ratio to absence), gene YDL067C (yeast gene YDL067C, mitochondria-located protein genes, 2 h culture with chemical): 1.0 | The level of expressed mRNA in the presence of chemical substance/ in its absence, gene YDL078C (energy system protein genes, 2 h culture with the chemical, ratio to control without chemical): 0.8 | The level of expressed mRNA in the presence of chemical substance/ in its absence, gene YDL078C (ratio of DNA chip fluorescence intensity to that without chemical substance): 0.8 | The level of expressed mRNA in the presence of chemical substance/ (in its absence), gene YDL215C (yeast gene YDL215C, ratio of DNA chip fluorescence intensity to that without chemical substance): 0.8 | The level of expressed mRNA in the presence of chemical substance/The level of expressed mRNA in the absence of chemical substance (yeast gene YDL238C): 0.9 | The level of expressed mRNA in the presence of chemical substance/The level of expressed mRNA in the absence of chemical substance (yeast gene YDR055W): 1.4
